Laboratory results published in patent publication US20230312646A1, “ANTIBACTERIAL PEPTIDES” (priority 2020, published 2023).
Where two headings read alike, the source gives them in different places. Numbered stars: 1 amine (or outer) side, 2 acyl side, 3 side chain; on linkers, the order of the positions; unused ones are H or OH. Square brackets hold non-standard residues; d marks the D form. Peptide text beside a SMILES is read from it. * marks the point of attachment. ξ: configuration not given here. ACHC(1S,2S) = O=C([C@H]1CCCC[C@@H]1N[*:1])[*:2]; Acryloyl(3-(3-pyridyl),E) = O=C(/C=C/c1cccnc1)*; Phe(3,4-Cl2) = N[C@@H](Cc1ccc(Cl)c(Cl)c1)C(=O)O; Oic = O=C(O)[C@@H]1C[C@@H]2CCCC[C@@H]2N1; NH(4-MeO-phenyl) = COc1ccc(N*)cc1; NMeR = CN[C@@H](CCCNC(=N)N)C(=O)O; X7 = C[N+](C)=C(NCC(=O)*)N1CCOCC1; X4 = O=C([O-])[C@H](Cc1ccccc1)N*; NFurfurylGly = O=C(O)CNCc1ccco1; Cha = N[C@@H](CC1CCCCC1)C(=O)O; NMeD = CN[C@@H](CC(=O)O)C(=O)O; X1 = O=C(/C=C/c1ccc2ccccc2c1)*; X3 = CN(C)C(NCC(=O)*)=[N+](C)C; Phe(ol) = N[C@H](CO)Cc1ccccc1; NHPhenethyl = c1ccc(CCN*)cc1; ξOic = O=C(O)C1CC2CCCCC2N1; Pip = O=C(O)[C@@H]1CCCCN1; X6 = O=C(/C=C/c1ccccc1)*; CO = O=C([*:1])[*:2]

Experiments:
[1] = target: T1, Escherichia coli SC (^EcSC) (Escherichia coli, UniProt P0A988); experiment: biochemical; format: binding
T1 construct: His tag (inferred from the pET15b vector and Ni-NTA purification) (N); made in house; host or cells: E. coli
Procedure: The procedure has been described previously (Wolff, P.; Oliéric, V.; Briand, J. P.; Chaloin, O.; Dejaegere, A.; Dumas, P.; Ennifar, E.; Guichard, G.; Wagner, J.; Burnouf, D. Y., Structure-Based Design of Short Peptide Ligands Binding onto the E. coli Processivity Ring. J. Med. Chem. 2011, 54 (13), 4627-4637). Briefly, E.coli cells were transformed with plasmids pET15b containing the dnaN gene from E. coli and were grown in LB at 37° C. to OD 0.5, then induced by IPTG (0.1 mM) at 28° C. overnight. dnaN proteins fractions were first enriched on a Ni-NTA column, eluted with a histidine step (300 mM) and further purified on a Source Q column in buffer containing 20 mM Tris HCI pH 7.5, 0.5 mM EDTA and 10% (v/v) glycerol, using a gradient from 0 to 0.5 M NaCl. After a final ultracentrifugation (45 K, 1 h, 20° C.), soluble proteins were concentrated on a Centricon 30 K (Millipore) in the same buffer and stored at 4° C. in 2 M ammonium sulfate. Buffer exchange was performed on Centrikon 10 K at 4° C. before use and protein quality was assessed by DLS.
(§1) ITC experiments were performed using an iTC200 or a PEAQ-ITC instrument (Microcal Malvern Panalytical). Peptides (300 or 600 µM) were titrated at 25° C. by sequential injections (usually 2 µl each) into an SC solution (30 or 60 µM). Data were corrected for heat of injection by subtracting the signal of the titration of peptides into proteiN-free buffer solution (Hepes 10 mM pH 7.4, NaCl 0.15 M, EDTA 3 mM). Each titration was performed at least twice. Analyses of experimental data were performed following a classical treatment with the AFFINImeter software (https://www.affinimeter.com; S4S, Santiago de Compostela, Spain). In addition, kinetic information was obtained in some cases with kinITC as implemented in the software AFFINImeter.
All newly synthesized peptides were tested for their interaction with ^EcSC by ITC at 25° C. As a general rule, all thermodynamic profiles reveal an exothermic interaction, and a non-favorable entropic component. The resulting negative Gibb’s free energies characterize a spontaneous interaction. The analysis of raw data by the Affinimeter® software also gave access to kinetics rate constant of the interaction.

[2] = target: T2, clamps from Pseudomonas aeruginosa (^PaSC) (Pseudomonas aeruginosa, UniProt Q9I7C4); experiment: ITC of peptides with P. aeruginosa clamp; format: binding
T2 construct: made in house
Procedure: as §1
Protein quality was assessed by DLS. The purification of clamps from other bacteria used the same procedure.
The bacterial sliding clamps present a highly conserved binding site among bacterial species. […] All these species belong to the ESKAPE group and are in the first priority bacteria list established by the World Health Organization for which new antibiotics are urgently needed.

[3] = Kd (nM), ITC at 298.15 K (25° C.)
[4] = affinities (Kd in nM), P. aeruginosa, ITC at 25° C., means of three independant experiments, standard deviations in brackets

T1 sequence (P0A988 whole entry): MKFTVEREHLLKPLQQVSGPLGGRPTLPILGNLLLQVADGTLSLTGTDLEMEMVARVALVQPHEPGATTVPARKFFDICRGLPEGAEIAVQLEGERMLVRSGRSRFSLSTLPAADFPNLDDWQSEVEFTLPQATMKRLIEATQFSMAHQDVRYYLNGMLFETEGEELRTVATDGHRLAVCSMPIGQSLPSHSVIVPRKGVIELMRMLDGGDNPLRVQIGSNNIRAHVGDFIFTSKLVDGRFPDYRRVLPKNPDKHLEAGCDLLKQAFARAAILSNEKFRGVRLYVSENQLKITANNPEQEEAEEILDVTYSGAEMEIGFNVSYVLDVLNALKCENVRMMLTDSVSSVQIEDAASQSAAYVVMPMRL
T2 sequence (Q9I7C4 whole entry): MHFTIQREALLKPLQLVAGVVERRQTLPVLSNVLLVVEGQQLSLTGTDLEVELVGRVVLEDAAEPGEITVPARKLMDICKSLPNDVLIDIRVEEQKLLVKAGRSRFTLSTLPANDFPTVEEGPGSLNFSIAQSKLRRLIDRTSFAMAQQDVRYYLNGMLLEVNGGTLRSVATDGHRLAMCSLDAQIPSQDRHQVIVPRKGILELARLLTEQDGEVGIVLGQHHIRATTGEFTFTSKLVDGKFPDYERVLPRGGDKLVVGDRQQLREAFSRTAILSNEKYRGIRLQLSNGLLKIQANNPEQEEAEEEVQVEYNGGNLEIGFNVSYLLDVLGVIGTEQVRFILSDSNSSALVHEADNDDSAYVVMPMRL

Compound | Kd [1, 3] [nM] | ΔG (kcal/mol) ([1]; ITC at 298.15 K (25° C.)) | kon ([1]; read-out: kon (M^-1.s^-1)) [M⁻¹ s⁻¹] | further results
CC(=O)N[C@@H](CCC(N)=O)C(=O)N[C@@H](CC1CCCCC1)C(=O)N(C)[C@@H](CC(=O)O)C(=O)N[C@@H](CC(C)C)C(=O)N[C@@H](Cc1ccc(Cl)c(Cl)c1)C(=O)O [P35] (Ac-Q[Cha][NMeD]L[Phe(3,4-Cl2)]-OH) | 41 | – | – | kon ([1]; read-out: kon (M^-1 s^-1)): 270000 M⁻¹ s⁻¹; Kd [2, 4]: 140 nM
CC(=O)N(C)[C@@H](CCCNC(=N)N)C(=O)N[C@@H](CCC(N)=O)C(=O)N[C@@H](CC1CCCCC1)C(=O)N(C)[C@@H](CC(=O)O)C(=O)N[C@@H](CC(C)C)C(=O)N[C@@H](Cc1ccc(Cl)c(Cl)c1)C(=O)O [P37] (Ac-[NMeR]Q[Cha][NMeD]L[Phe(3,4-Cl2)]-OH) | 92 | – | – | Kd ([1]; affinities (Kd in nM), E.coli, ITC at 25° C., means of three independant experiments, standard deviations in brackets): 74 nM; Kd [2, 4]: 169 nM; Kd ([2]; affinity for these clamps (^PaSC and ^AbSC), range over ^PaSC and ^AbSC): 120 to 170 nM
CC(=O)N[C@@H](CCC(N)=O)C(=O)N[C@@H](CC1CCCCC1)C(=O)N[C@@H](CC(=O)O)C(=O)N[C@@H](CC(C)C)C(=O)N[C@H](CO)Cc1ccccc1 [P24] (Ac-Q[Cha]DL[Phe(ol)]) | 751 | -8.4 (± 0.1) kcal/mol | 26000 | –
COc1ccc(NC(=O)N[C@@H](CCC(N)=O)C(=O)N[C@@H](CC2CCCCC2)C(=O)N[C@@H](CC(=O)O)C(=O)N[C@@H](CC(C)C)C(=O)N[C@@H](Cc2ccccc2)C(=O)O)cc1 [P22] ({NH(4-MeO-phenyl)-CO}-Q[Cha]DLF-OH) | 73 | – | 40000 | –
CC(C)C[C@H](NC(=O)[C@H](CC(=O)O)NC(=O)[C@H](CC1CCCCC1)NC(=O)[C@H](CCC(N)=O)NC(=O)/C=C/c1cccnc1)C(=O)N[C@@H](Cc1ccccc1)C(=O)O [P16] ({Acryloyl(3-(3-pyridyl),E)}-Q[Cha]DLF-OH) | 156 | -9.3 (± 0.2) kcal/mol | 46000 | –
CC(C)C[C@H](NC(=O)[C@H](CC(=O)O)NC(=O)[C@H](CC1CCCCC1)NC(=O)[C@H](CCC(N)=O)NC(=O)/C=C/c1ccc2ccccc2c1)C(=O)N[C@@H](Cc1ccccc1)C(=O)O [P20] (X1-Q[Cha]DLF-OH) | 89 | – | 65000 | –
CC(C)C[C@H](NC(=O)[C@H](CC(=O)O)NC(=O)[C@H](CC1CCCCC1)NC(=O)[C@H](CCC(N)=O)NC(=O)CNC(N1CCOCC1)=[N+](C)C)C(=O)N[C@@H](Cc1ccccc1)C(=O)[O-] [P14] (X7-Q[Cha]DL-X4) | 276 | -9.0 (± 0.1) kcal/mol | 34000 | –
CC(=O)N[C@@H](CCC(N)=O)C(=O)N[C@@H](CC1CCCCC1)C(=O)N[C@@H](CC(=O)O)C(=O)N[C@@H](CC(C)C)C(=O)N[C@H]1CCCC[C@@H]1C(=O)N[C@@H](CC(C)C)C(=O)O [P31] (Ac-Q[Cha]DL[ACHC(1S,2S)]L-OH) | 4070 | -7.4 (± 0.2) kcal/mol | 7400 | –
CC(=O)N[C@@H](CCC(N)=O)C(=O)N[C@@H](CC1CCCCC1)C(=O)N[C@@H](CC(=O)O)C(=O)N[C@@H](CC(C)C)C(=O)N1[C@H](C(=O)N[C@@H](Cc2ccccc2)C(=O)O)C[C@@H]2CCCC[C@@H]21 [P48] (Ac-Q[Cha]DL[Oic]F-OH) | 120 | – | – | ΔG (kcal mol^-1) ([1]; ITC at 25° C.): -9.5 (± 0.3) kcal mol^-1; kon ([1]; read-out: kon (M^-1 s^-1)): 55000 M⁻¹ s⁻¹
CC(=O)N[C@@H](CCC(N)=O)C(=O)N[C@@H](CC1CCCCC1)C(=O)N(C)[C@@H](CC(=O)O)C(=O)N[C@@H](CC(C)C)C(=O)N[C@@H](Cc1ccccc1)C(=O)O [P4] (Ac-Q[Cha][NMeD]LF-OH) | 114 | -9.5 (± 0.1) kcal/mol | 210000 | koff, fold higher than for peptide 1 (P1) ([1]; compared to P1): 2.5 fold; kon value, fold higher than for peptide 1 (P1) ([1]; compared to P1): 5 fold
CC(=O)N[C@@H](CCC(N)=O)C(=O)N[C@@H](CC1CCCCC1)C(=O)N[C@@H](CC(=O)O)C(=O)N[C@@H](CC(C)C)C(=O)NCCc1ccccc1 [P23] (Ac-Q[Cha]DL-NHPhenethyl) | 922 | -8.2 (± 0.05) kcal/mol | 19000 | –
CC(C)C[C@H](NC(=O)[C@H](CC(=O)O)NC(=O)[C@H](CC1CCCCC1)NC(=O)[C@H](CCC(N)=O)NC(=O)CNCc1ccco1)C(=O)N[C@@H](Cc1ccccc1)C(=O)O [P9] (H-[NFurfurylGly]Q[Cha]DLF-OH) | 171 | -9.2 (± 0.1) kcal/mol | 48000 | –
CC(=O)N[C@@H](CCC(N)=O)C(=O)N[C@@H](CC1CCCCC1)C(=O)N[C@@H](CC(=O)O)C(=O)N[C@@H](CC(C)C)C(=O)N1C(C(=O)N[C@@H](CC(C)C)C(=O)O)CC2CCCCC21 (stereo partly drawn) [P47] (Ac-Q[Cha]DL[ξOic]L-OH) | – | – | – | kon ([1]; read-out: kon (M^-1 s^-1)): 71000 M⁻¹ s⁻¹
COc1ccc(NC(=O)N[C@@H](CCC(N)=O)C(=O)N[C@@H](CC2CCCCC2)C(=O)N(C)[C@@H](CC(=O)O)C(=O)N[C@@H](CC(C)C)C(=O)N[C@@H](Cc2ccc(Cl)c(Cl)c2)C(=O)O)cc1 [P39] ({NH(4-MeO-phenyl)-CO}-Q[Cha][NMeD]L[Phe(3,4-Cl2)]-OH) | 266 | – | – | ΔG (kcal mol^-1) ([1]; ITC at 25° C.): -9.0 (± 0.01) kcal mol^-1; kon ([1]; read-out: kon (M^-1 s^-1)): 42000 M⁻¹ s⁻¹
CC(=O)N[C@@H](CCC(N)=O)C(=O)N[C@@H](CC1CCCCC1)C(=O)N[C@@H](CC(=O)O)C(=O)N[C@@H](CC(C)C)C(=O)NCC(=O)N[C@@H](Cc1ccccc1)C(=O)O [P29] (Ac-Q[Cha]DLGF-OH) | 313 | -8.9 (± 0.1) kcal/mol | 32000 | –
CC(=O)N[C@@H](CCCNC(=N)N)C(=O)N[C@@H](CCC(N)=O)C(=O)N[C@@H](CC1CCCCC1)C(=O)N(C)[C@@H](CC(=O)O)C(=O)N[C@@H](CC(C)C)C(=O)N[C@@H](Cc1ccc(Cl)c(Cl)c1)C(=O)O [P36] (Ac-RQ[Cha][NMeD]L[Phe(3,4-Cl2)]-OH) | 278 | – | – | kon ([1]; read-out: kon (M^-1 s^-1)): 76000 M⁻¹ s⁻¹
CC(C)C[C@H](NC(=O)[C@H](CC(=O)O)NC(=O)[C@H](CC1CCCCC1)NC(=O)[C@H](CCC(N)=O)NC(=O)/C=C/c1ccccc1)C(=O)N[C@@H](Cc1ccccc1)C(=O)O [P17] (X6-Q[Cha]DLF-OH) | 129 | -9.4 (± 0.2) kcal/mol | 46000 | –
CC(=O)N[C@@H](CCC(N)=O)C(=O)N[C@@H](CC1CCCCC1)C(=O)N[C@@H](CC(=O)O)C(=O)N[C@@H](CC(C)C)C(=O)N1CCCC[C@H]1C(=O)N[C@@H](CC(C)C)C(=O)O [P34] (Ac-Q[Cha]DL[Pip]L-OH) | 243 | -9.0 (± 0.1) kcal/mol | 43000 | –
CC(C)C[C@H](NC(=O)[C@H](CC(=O)O)NC(=O)[C@H](CC1CCCCC1)NC(=O)[C@H](CCC(N)=O)NC(=O)CNC(N(C)C)=[N+](C)C)C(=O)N[C@@H](Cc1ccccc1)C(=O)[O-] [P15] (X3-Q[Cha]DL-X4) | 353 | -8.7 (± 0.1) kcal/mol | 34000 | –
CC(C)C[C@H](NC(=O)[C@@H]1CCCN1C(=O)[C@H](CC(C)C)NC(=O)[C@H](CC(=O)O)N(C)C(=O)[C@H](CC1CCCCC1)NC(=O)[C@H](CCC(N)=O)NC(=O)/C=C/c1cccnc1)C(=O)O [P44] ({Acryloyl(3-(3-pyridyl),E)}-Q[Cha][NMeD]LPL-OH) | 177 | – | – | ΔG (kcal mol^-1) ([1]; ITC at 25° C.): -9.2 (± 0.1) kcal mol^-1; kon ([1]; read-out: kon (M^-1 s^-1)): 63000 M⁻¹ s⁻¹
CC(=O)N[C@@H](CCC(N)=O)C(=O)N[C@@H](CC1CCCCC1)C(=O)N[C@H](C(=O)N[C@@H](CC(C)C)C(=O)N[C@@H](Cc1ccccc1)C(=O)O)[C@@H](C)O [Asp to Thr substitution] (Ac-Q[Cha]TLF-OH) | 180 | -9.2 (+/- 0.1) kcal/mol | – | –
